Laboratory results: ChEMBL document CHEMBL1201862, “PubChem BioAssay data set” (2004)
Activity calls are given as the source filed them.

Tests used:
[1] = biological target: T1, Apoptotic protease-activating factor 1 (Homo sapiens, UniProt O14727); format: functional
T1 sequence (O14727 whole entry): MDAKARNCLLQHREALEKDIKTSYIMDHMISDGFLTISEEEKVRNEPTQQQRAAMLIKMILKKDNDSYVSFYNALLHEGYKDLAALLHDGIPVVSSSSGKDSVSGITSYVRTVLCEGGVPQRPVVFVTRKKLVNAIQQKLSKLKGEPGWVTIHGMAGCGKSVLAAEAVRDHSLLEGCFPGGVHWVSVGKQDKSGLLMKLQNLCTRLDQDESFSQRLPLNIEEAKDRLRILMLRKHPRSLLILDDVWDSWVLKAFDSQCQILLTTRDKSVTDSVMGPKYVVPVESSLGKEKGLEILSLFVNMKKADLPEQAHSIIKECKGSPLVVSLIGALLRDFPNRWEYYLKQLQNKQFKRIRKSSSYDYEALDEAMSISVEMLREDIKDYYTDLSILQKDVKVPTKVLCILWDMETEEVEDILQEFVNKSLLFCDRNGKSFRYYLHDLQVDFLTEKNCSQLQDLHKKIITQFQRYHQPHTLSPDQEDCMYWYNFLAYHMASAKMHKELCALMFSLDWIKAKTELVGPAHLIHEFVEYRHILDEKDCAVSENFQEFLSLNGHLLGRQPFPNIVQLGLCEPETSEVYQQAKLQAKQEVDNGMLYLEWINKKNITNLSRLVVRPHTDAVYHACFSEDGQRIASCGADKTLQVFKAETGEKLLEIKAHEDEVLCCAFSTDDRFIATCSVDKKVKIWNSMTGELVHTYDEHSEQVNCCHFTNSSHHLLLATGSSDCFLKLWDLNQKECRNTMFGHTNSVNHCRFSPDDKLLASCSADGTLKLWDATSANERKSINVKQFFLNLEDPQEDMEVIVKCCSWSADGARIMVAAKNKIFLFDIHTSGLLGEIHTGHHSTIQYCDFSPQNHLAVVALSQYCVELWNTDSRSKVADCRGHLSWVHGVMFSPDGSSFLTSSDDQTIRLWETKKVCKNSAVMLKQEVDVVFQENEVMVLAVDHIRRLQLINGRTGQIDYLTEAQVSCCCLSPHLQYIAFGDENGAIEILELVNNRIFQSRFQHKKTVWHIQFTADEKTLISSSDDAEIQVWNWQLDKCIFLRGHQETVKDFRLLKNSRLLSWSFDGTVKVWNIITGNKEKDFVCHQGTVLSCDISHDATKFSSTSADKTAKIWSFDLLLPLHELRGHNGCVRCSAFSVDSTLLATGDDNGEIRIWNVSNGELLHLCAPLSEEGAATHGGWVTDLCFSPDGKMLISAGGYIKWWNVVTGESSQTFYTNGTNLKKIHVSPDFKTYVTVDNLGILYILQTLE

[2] = biological target: Genome polyprotein (dengue virus type 2, UniProt P29990); test: flavivirus cap methylation enzyme inhibition – biochemical, confirmation dose response, primary screen (AID 588689); format: functional
Sequence of Genome polyprotein (P29990 2492-3391 limits assumed): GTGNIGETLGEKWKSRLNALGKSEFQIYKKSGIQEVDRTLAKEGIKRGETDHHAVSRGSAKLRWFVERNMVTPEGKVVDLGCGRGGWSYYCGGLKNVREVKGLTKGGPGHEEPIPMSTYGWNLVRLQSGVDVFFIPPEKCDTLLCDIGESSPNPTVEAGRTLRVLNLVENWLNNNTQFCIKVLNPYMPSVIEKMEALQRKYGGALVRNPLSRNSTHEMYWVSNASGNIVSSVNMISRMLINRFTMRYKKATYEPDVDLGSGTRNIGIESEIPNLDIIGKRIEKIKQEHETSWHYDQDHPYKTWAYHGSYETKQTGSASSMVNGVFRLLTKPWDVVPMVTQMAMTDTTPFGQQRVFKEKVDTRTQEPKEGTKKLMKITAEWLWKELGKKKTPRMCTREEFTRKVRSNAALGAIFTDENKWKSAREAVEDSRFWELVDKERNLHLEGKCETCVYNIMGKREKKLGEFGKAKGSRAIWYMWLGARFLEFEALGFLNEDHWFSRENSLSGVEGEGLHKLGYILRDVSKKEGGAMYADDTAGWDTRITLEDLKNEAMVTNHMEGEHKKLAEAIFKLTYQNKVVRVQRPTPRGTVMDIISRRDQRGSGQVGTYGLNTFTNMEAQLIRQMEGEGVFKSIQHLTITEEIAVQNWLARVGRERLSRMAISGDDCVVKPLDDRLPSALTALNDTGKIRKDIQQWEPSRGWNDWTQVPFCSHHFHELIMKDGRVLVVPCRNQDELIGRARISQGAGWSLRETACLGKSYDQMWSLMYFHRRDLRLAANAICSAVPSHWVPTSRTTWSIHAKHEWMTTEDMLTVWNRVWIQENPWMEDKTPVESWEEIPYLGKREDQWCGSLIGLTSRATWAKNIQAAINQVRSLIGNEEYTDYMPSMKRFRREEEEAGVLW

[3] = biological target: Caspase-8 (Homo sapiens, UniProt Q14790); test: inhibitors of purified CASP8 protease – biochemical, Z-IETD-R110 fluorescence, cherry-picked samples, selectivity assay for caspase-6 inhibitor project, dose response (AID 743294)
Sequence of Caspase-8 (Q14790 217-374 limits assumed): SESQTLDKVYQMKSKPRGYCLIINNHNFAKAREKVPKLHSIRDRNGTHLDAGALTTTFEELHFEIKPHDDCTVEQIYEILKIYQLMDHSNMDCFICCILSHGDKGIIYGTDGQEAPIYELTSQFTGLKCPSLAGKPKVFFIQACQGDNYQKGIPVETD
Sequence of Caspase-8 (Q14790 385-479 limits assumed): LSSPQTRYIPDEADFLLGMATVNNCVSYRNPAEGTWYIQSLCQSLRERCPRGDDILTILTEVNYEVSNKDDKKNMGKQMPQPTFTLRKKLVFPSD

[4] = HepG2 cell cytotoxicity, dose response, cytotoxicity control for non-replicating M. tuberculosis project (AID 489018); format: functional; settings: Mycobacterium tuberculosis
[5] = biological target: 1-phosphatidylinositol 4,5-bisphosphate phosphodiesterase beta-3 (Homo sapiens, UniProt Q01970); test: Fluorescence-based biochemical high throughput dose response assay to identify inhibitors of phospholipase C isozymes (PLC-B3).
Sequence of 1-phosphatidylinositol 4,5-bisphosphate phosphodiesterase beta-3 (Q01970 whole entry): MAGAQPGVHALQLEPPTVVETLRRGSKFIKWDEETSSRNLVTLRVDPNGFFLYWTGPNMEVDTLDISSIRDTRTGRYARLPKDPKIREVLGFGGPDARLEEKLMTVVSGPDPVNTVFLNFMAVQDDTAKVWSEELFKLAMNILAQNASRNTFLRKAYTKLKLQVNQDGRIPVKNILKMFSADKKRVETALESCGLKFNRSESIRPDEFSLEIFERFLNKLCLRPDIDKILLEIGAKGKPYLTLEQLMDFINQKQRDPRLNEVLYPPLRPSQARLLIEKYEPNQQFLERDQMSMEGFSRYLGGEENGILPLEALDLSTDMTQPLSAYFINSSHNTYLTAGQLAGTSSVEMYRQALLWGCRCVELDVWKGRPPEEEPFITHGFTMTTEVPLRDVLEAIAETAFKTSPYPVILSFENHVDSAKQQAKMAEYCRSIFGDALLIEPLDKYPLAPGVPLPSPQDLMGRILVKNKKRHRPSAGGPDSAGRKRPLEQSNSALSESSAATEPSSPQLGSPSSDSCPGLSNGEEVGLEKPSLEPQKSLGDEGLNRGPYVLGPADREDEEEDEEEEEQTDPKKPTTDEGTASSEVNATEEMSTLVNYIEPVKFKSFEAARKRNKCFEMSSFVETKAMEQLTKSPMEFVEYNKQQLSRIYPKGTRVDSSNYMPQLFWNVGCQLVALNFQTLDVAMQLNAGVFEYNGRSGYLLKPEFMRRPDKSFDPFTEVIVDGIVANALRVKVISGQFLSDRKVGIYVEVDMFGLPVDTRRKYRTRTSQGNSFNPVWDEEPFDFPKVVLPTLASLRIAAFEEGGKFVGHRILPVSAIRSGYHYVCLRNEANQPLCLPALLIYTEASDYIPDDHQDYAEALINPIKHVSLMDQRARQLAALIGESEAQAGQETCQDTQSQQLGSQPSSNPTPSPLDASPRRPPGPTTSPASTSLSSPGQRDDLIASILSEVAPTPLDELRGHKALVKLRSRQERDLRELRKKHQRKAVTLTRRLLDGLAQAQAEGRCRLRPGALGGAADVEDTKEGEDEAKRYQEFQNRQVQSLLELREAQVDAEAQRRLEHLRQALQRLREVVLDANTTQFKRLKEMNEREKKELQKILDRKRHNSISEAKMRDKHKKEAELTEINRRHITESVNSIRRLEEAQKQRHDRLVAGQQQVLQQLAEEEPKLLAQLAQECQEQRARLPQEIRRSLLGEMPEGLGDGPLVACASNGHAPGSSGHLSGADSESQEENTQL

SMILES | IC50 [1] | IC50 [2] | AC50 [3] | CC50 [4] | IC50 [5]
COc1cc(-c2ccc(Nc3ccccc3C(=O)O)c(OC)c2)ccc1Nc1ccccc1C(=O)O | 26.7 µM (active) | 18.8 µM (active) | 48 µM (active) | – | –
COC(CNC(=O)c1ccc2c3c(onc13)-c1ccccc1C2=O)OC | 25.2 µM (active) | 4.67 µM (active) | – | 15.1 µM (active) | –
COc1ccc(OC)c(Nc2cc3ccccc3c(O)n2)c1 | 2.5 µM (active) | – | 6.14 µM (active) | – | –
O=C(O)c1ccc(NC2=C/C(=N/S(=O)(=O)c3ccccc3)c3ccccc3C2=O)cc1 | 3.15 µM (active) | 17.1 µM (active) | – | – | > 122 µM (inactive)
Nc1ccc2c(c1)C(=O)C(=O)c1ccccc1-2 | 0.768 µM (active) | – | – | 7.59 µM (active) | > 122 µM (inactive)
